Test results as given in patent publication US7452717B2, “Compositions and methods for sensitizing and inhibiting growth of human tumor cells” (St. Jude Children's Research Hospital, priority 1998, dated 2008).
Where “and” joins values, the source holds several entries; their conditions need not be identical. Equal entries are not always repeated.

How the values were obtained:
rabbit liver CE = biological target: T1, rabbit liver CE (Oryctolagus cuniculus, UniProt P12337); experiment: Esterase assay (o-NPA), COS-7 cells expressing rabbit CE; type: biochemical; design: To amplify a full length rabbit CE cDNA, oligonucleotide primers RabNTERM; expressed in transfected cells; host or cells: COS-7 (sonicates of transiently transfected cells); conditions: plasmid pCIRAB, enzyme rabbit
T1 sequence (P12337 19-565): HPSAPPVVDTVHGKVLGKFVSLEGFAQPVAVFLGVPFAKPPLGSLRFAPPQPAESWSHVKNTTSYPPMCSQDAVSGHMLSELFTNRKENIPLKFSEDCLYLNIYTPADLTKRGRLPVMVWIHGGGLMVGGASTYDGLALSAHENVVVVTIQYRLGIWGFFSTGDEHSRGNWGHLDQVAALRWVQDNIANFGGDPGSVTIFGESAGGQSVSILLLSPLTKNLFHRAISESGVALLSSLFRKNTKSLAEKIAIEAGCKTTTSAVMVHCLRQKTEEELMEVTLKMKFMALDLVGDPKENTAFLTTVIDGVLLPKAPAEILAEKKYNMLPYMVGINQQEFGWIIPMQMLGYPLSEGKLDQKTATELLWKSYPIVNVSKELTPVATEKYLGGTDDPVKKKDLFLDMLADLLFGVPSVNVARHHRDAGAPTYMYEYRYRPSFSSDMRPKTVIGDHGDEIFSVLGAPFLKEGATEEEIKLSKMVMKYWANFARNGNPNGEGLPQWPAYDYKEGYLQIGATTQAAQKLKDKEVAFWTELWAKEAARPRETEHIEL
Description: (§1) Esterase activity was determined in whole tissue sonicates using a spectrophotometric assay with o-nitrophenol acetate as a substrate (Potter et al. 1998 Cancer Res. 52:2646-2651; Beaufay et al. 1974 J. Cell Biol. 61:188-200). Protein concentrations were calculated using BioRad protein assay reagent (Hercules, Calif.) with bovine serum albumin as a standard. Enzyme activities were calculated as μmoles of o-nitrophenol produced per minute per mg of total protein.

[1] = system: COS-7 cells (pCIneo, no enzyme); experiment: Esterase assay (o-NPA), COS-7 cells transfected with pCIneo; type: biochemical, monkey; conditions: plasmid pCIneo
Description: as §1

[2] = biological target: T2, human intestinal CE (hiCE) (Homo sapiens, UniProt O00748); experiment: Esterase assay (o-NPA), COS-7 cells expressing hiCE; type: biochemical; conditions: plasmid pCIhiCE, media
T2 construct: expressed in transfected cells; host or cells: COS-7 (sonicates of transiently transfected cells)
T2 sequence (O00748 27-559): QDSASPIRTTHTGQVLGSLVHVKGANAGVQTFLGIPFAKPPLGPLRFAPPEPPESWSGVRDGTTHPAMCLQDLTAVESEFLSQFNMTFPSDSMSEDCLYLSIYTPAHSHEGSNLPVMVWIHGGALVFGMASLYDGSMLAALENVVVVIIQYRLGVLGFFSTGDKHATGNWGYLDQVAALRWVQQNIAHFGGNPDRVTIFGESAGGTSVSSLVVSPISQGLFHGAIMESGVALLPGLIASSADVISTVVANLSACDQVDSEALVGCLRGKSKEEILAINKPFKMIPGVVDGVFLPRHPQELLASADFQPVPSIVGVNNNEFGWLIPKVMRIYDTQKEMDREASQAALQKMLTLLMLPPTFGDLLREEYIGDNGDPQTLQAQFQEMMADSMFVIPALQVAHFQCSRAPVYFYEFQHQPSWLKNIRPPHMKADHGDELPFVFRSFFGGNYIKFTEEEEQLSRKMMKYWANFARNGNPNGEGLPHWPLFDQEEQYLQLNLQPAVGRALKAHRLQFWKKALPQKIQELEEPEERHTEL
Description: as §1

[3] = system: CE activity in human biopsy whole tissue sonicates; experiment: Esterase assay (o-NPA conversion) with human biopsy extracts; type: biochemical
Description: Using human intestinal mucosal biopsy tissue, the conversion of o-NPA to nitrophenol by whole tissue sonicates was monitored. CE activity was identified in both small intestine and colon samples, with activity levels in small intestine being much less than the levels seen with human liver.
Biopsies of human intestine were obtained from the Cooperative Human Tissue Network (Birmingham, Ala.). The samples were ground under liquid nitrogen and the resulting powder sonicated in 50 mM Hepes, pH 7.4, on ice.
as §1

human liver CE (hCE1) = biological target: T3, human liver CE (hCE1) (Homo sapiens, UniProt P23141); experiment: Esterase assay (o-NPA), COS-7 cells expressing hCE1; type: biochemical; conditions: plasmid pCIHUMCAR, enzyme hCE1
T3 construct: expressed in transfected cells; host or cells: COS-7 (sonicates of transiently transfected cells)
T3 sequence (P23141 18-567): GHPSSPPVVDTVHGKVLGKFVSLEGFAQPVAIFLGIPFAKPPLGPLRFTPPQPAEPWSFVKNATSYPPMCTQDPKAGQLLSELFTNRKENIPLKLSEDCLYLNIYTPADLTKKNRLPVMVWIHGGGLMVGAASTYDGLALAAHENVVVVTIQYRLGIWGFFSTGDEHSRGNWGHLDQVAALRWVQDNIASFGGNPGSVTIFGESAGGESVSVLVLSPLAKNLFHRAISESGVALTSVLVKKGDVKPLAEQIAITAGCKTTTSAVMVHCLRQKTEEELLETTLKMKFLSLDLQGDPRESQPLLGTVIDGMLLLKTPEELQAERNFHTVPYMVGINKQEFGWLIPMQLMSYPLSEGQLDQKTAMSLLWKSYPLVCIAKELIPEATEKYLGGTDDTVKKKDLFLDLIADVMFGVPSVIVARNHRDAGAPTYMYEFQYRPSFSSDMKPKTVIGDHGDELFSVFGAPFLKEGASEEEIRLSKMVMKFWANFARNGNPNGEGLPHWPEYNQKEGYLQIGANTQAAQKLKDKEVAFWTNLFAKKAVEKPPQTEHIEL
Description: as §1

- o-NPA Conversion (rabbit liver CE): 2755.5 ± 271.2 µmol/min/mg
- o-NPA Conversion [2]: 30.9 ± 2.8 µmol/min/mg
- o-NPA Conversion (human liver CE (hCE1)): 4780.3 ± 279.8 µmol/min/mg
Compound: CC(=O)Oc1ccccc1[N+](=O)[O-] [o-NPA, o-nitrophenyl acetate]
- o-NPA Conversion ([1]; enzyme none): 6.7 ± 0.15 µmol/min/mg
- o-NPA Conversion ([1]; media): 13.3 ± 2.7 µmol/min/mg
- o-NPA Conversion ([3]; human colon biopsy extract): 46.5 ± 1.2 µmol/min/mg and 86.3 ± 5.2 µmol/min/mg and 75.9 ± 2.6 µmol/min/mg
- o-NPA Conversion ([3]; human small intestine biopsy extract): 113.0 ± 9.2 µmol/min/mg and 67.6 ± 4.1 µmol/min/mg and 61.0 ± 2.0 µmol/min/mg
